Here are results for two molecules from publication PMC9791066, “Investigations into the antibacterial effects and potential mechanism of gambogic acid and neogambogic acid” (Frontiers in Microbiology, 2022).

In brackets after ≈: the same amount, converted by molar mass. Like-named read-outs stand apart in the source and are kept apart here. A value given as a limit tells only on which side of the number the result lay.

For one experiment, the target named is T1, EfaUPPS (R42A) (Enterococcus faecalis, UniProt Q831K9, R48A).
T1 construct: His tag; made in house; host or cells: E. coli BL21(DE3)
Description: UPPS inhibition assay, EfaUPPS R42A mutant. The following applies: for effect of mutation on inhibitory effect of compound on EfaUPPS enzyme activity: R42A mutant compared with wild-type. The experiment is classed as biochemical. The procedure: (§1) The EfaUPPS site-directed mutagenesis was generated using QuikChange site-directed mutagenesis kit (Agilent) according to the manufacturer’s instructions. The purification of site-directed mutation was using a similar strategy as described above.
(§2) The UPPS inhibition assay was carried out by measuring the fluorescence of the reaction mixture in a black 96-well microtiter plate (Corning, United States). […] After the indicated incubation period, the reaction was terminated by the addition of 10 μl of 0.5 M EDTA solution. Transferred 50 μl of the reaction mixture into a new 96-well microtiter plate, and quenched with an equal volume of Master Reaction Mix (Pyrophosphate Assay Kit, Sigma-Aldrich, USA) for 30 min. The UPPS inhibitory activity was performed by calculating the fluorescence percentage through determining the fluorescence absorbance of reaction mixture at 316 and 456 nm. Data of UPPS inhibitory activities were plotted versus compound concentrations on a semi-log scale using GraphPad Prism7. All the results were the means of at least three biological replicates.

In a further experiment the target is T2, EfaUPPS (L91A) (Enterococcus faecalis, UniProt Q831K9, L97A).
T2 construct: His tag; made in house; host or cells: E. coli BL21(DE3)
Description: Microscale thermophoresis binding assay, EfaUPPS L91A. Particulars: MST, no binding. The method, then:
(§3) To characterize the binding affinity between EfaUPPS and GA or NGA, the MST binding assay was performed as previously described ([Lin et al., 2020]). In brief, His-tagged EfaUPPS and site-directed mutated EfaUPPS were labeled with the NT- 647-NHS dye using the Monolith NTTM Protein Labeling Kit RED-NHS (NanoTemper Technologies). Two-fold serially diluted GA or NGA was mixed with 10 nM of labeled EfaUPPS or its derivatives in 10 μl of binding buffer (137 mM NaCl, 2.7 mM KCl, 10 mM Na2HPO4, 1.8 mM KH2PO4, and 0.05% Tween-20, pH 7.8), incubated for 15 min, at room temperature. And then, loaded the mixtures into NT.115 premium coated capillaries (NanoTemper Technologies). MST trace signals were collected from the IR laser on to off for about 20 s, under the 5% LED power and high MST power mode. The change of molecular thermophoresis was monitored by standardized fluorescence value Fnorm, and the binding curve was plotted according to the values of Fnorm. The formed complex affinity was analyzed by MO Affinity Analysis software version 2.3. Apparent dissociation constants (Kd) were calculated using nonlinear fitting assuming one specific binding site with the GraphPad Prism 7 software with the following formula: Y = B^∗Max X/KD + X.
(§4) (^∗ where BMax is the maximum theoretical specific binding; here BMax = 1).
(In MST a laser heats a spot of the sample, and binding alters the fluorescence response.)

In a further experiment the target is T3, EfaUPPS (L146A) (Enterococcus faecalis, UniProt Q831K9, L152A).
T3 construct: His tag; made in house; host or cells: E. coli BL21(DE3)
Description: Microscale thermophoresis binding assay, EfaUPPS L146A. Particulars: MST, no binding. The method, then:
as §3, §4

Experiment [1] concerns Escherichia coli BL21 (DE3). Kind of experiment: microbe, parasite or virus in culture. The experiment is classed as cell-based. Particulars: Escherichia coli, 18 h. The method, then: (§5) Antibacterial activities were performed by examining the minimal inhibitory concentrations (MICs), which was determined by a microtiter broth dilution method as previously described ([Cotsonas King and Wu, 2009]), with minor modifications. Briefly, 96-well plates (Corning) were inoculated with 100 μl of LB broth per well containing 7 × 10^5 CFU/mL bacteria, followed by adding 100 μl of LB broth containing two-fold serial dilutions of the test compounds. […] After 18 h of incubation, the MIC was determined to be the lowest concentration without visible bacterial growth. The results were the averages of at least three biological replicates.

Another experiment relates to Escherichia coli DH5α. Description: microbe, parasite or virus in culture. Format: cell-based. Particulars: Escherichia coli, 18 h. The procedure:
as §5

Another experiment has as its system Escherichia coli BAS 849. Kind of experiment: microbe, parasite or virus in culture. The experiment is classed as cell-based. The following applies: Escherichia coli. The procedure: as §5
The subject of experiment [2] is clinical strains of S. aureus, E. faecalis, L. monocytogenes. Description: MIC against clinical isolates. The following applies: 10 more clinical strains of each species. The experiment is classed as cell-based. The text has this:
Enterococcus faecalis ATCC29212 and Staphylococcus aureus ATCC29213 were purchased from the […]. Methicillin-resistant Staphylococcus aureus (MRSA), Listeria monocytogenes ATCC19117, Escherichia coli ATCC25922, Escherichia coli BAS849, DH5α and BL21 were from Lin lab storage. The clinical strains used in this study were isolated and identified from Affiliated Hospital of Nanjing University of Chinese Medicine and Nanjing Drum Tower Hospital, China. All the bacteria strains were routinely cultured in Luria-Bertani (LB) broth media (1% tryptone, 0.5% yeast extract, and 1% NaCl) at 37°C, except as noted.
Antibacterial activities were performed by examining the minimal inhibitory concentrations (MICs), which was determined by a microtiter broth dilution method as previously described ([Cotsonas King and Wu, 2009]), with minor modifications. Briefly, 96-well plates (Corning) were inoculated with 100 μl of LB broth per well containing 7 × 10^5 CFU/mL bacteria, followed by adding 100 μl of LB broth containing two-fold serial dilutions of the test compounds. Tetracycline (Tet) and ampicillin (Amp) and viridicatumtoxins were used as the positive controls. After 18 h of incubation, the MIC was determined to be the lowest concentration without visible bacterial growth. The results were the averages of at least three biological replicates.

For a further experiment, the system named is E. faecalis ATCC29212. Description: Bacterial activity (bactericidal) test. The experiment is classed as cell-based, Enterococcus faecalis. Particulars: 2 μg/mL. The procedure:
The E. faecalis ATCC29212 were pre-cultured in LB broth at 200 rpm, 37°C overnight, and then the cultures were diluted to 7 × 10^5 CFU/mL by LB broth. A 96-well microtiter plate was inoculated with 200 μl the diluted cultures per well containing 0.1 mg/mL Resazurin with or without 2 μg/mL GA or NGA, followed by incubation at 37°C for 24 h, and then imaged. Three biological replicates were performed for each sample. To visualized the potential bactericidal properties for GA and NGA, the 24 h of GA/NGA-pretreated E. faecalis were coated on the plate to continue cultured overnight. The bactericidal properties of the compounds were determined by counting the bacterial CFUs.

Another experiment addresses T4, EfaUPPS (K47A) (Enterococcus faecalis, UniProt Q831K9, K53A).
T4 construct: His tag; made in house; host or cells: E. coli BL21(DE3)
Kind of experiment: UPPS inhibition assay, EfaUPPS K47A mutant. The following applies: K47A mutant compared with wild-type. The experiment is classed as biochemical. The procedure:
as §1, §2

T4 sequence (Q831K9 whole entry K53A): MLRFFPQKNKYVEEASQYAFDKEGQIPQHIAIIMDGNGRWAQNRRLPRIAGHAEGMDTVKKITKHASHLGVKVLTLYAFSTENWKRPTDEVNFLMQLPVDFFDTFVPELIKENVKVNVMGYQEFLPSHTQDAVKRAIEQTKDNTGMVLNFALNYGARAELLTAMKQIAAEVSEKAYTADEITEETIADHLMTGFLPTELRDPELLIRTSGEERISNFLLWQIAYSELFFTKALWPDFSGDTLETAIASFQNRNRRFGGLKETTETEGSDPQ
T1 sequence (Q831K9 whole entry R48A): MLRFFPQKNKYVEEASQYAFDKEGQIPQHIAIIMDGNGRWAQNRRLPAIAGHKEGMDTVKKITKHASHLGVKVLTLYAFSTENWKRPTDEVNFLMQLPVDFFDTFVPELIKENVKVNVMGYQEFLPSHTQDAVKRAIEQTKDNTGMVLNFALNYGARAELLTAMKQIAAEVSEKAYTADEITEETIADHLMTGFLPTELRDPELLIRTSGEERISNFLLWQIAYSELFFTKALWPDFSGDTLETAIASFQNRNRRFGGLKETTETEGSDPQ
T3 sequence (Q831K9 whole entry L152A): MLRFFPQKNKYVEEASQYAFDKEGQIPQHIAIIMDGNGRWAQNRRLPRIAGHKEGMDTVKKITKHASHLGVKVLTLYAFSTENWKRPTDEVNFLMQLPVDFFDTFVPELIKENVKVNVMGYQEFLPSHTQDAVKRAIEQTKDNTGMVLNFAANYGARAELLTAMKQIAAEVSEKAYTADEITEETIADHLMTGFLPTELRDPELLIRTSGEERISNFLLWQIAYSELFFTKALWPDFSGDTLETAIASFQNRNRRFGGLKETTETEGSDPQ
T2 sequence (Q831K9 whole entry L97A): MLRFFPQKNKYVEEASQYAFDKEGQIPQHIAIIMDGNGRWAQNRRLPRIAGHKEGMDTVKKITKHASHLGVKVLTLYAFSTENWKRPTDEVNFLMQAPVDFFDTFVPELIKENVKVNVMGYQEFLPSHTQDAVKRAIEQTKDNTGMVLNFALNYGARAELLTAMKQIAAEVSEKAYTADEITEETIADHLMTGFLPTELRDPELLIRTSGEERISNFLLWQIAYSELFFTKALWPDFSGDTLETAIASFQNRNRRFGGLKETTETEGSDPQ

In the case of `CC(C)=CCC[C@]1(C)C=Cc2c(O)c3c(c(CC=C(C)C)c2O1)O[C@]12C(=C[C@@H]4C[C@H]1C(C)(C)O[C@@]2(C/C=C(/C)C(=O)O)C4=O)C3=O` [GA, gambogic acid], the IC50 (commonly the point on the concentration scale where inhibition reaches its midpoint) at EfaUPPS (R42A) amounted to 0.00539 mM. Besides, the “effect of mutation on inhibitory effect of compound on EfaUPPS enzyme activity” value at EfaUPPS (R42A) is “does not have significant impact”; on EfaUPPS (K47A), “no obvious difference”. In addition, the Kd on EfaUPPS (L91A) and at EfaUPPS (L146A) was more than 50 mM throughout. Also, the MIC in experiment [1] (LB broth, read-out: MIC) was more than 64 µg/mL; in the experiment with Escherichia coli DH5α (LB broth, read-out: MIC), more than 64 µg/mL; with Escherichia coli BAS 849 (BAS849, LB broth, 18 h, strain with deficient outer-membrane structure, read-out: MIC), 8 µg/mL (≈ 12.7 µM). In addition, in experiment [2], the “growth inhibitory activity (MICs) against clinical strains” value is recorded as “high potency in growth inhibitory activity”. Further, in the experiment on E. faecalis ATCC29212, the “bactericidal properties (CFUs after 24 h pretreatment)” value was “potential bactericidal effects”. Further, at EfaUPPS (K47A), the “IC50 values of K47A mutant (in words)” value is recorded as “increased”.
`CC(C)=CCC[C@]1(C)CC(O)c2c(O)c3c(c(CC=C(C)C)c2O1)O[C@]12C(=C[C@@H]4C[C@H]1C(C)(C)O[C@@]2(C/C=C(/C)C(=O)O)C4=O)C3=O` (some centres unmarked) [NGA, neogambogic acid]: the “effect of mutation on inhibitory effect of compound on EfaUPPS enzyme activity” value on EfaUPPS (R42A) and at EfaUPPS (K47A) was “significantly reduced” each time. For the same molecule, the Kd on EfaUPPS (L91A) and at EfaUPPS (L146A) was more than 50 mM each time. The MIC in [1] was more than 64 µg/mL; in the experiment with Escherichia coli DH5α, more than 64 µg/mL; with Escherichia coli BAS 849 (BAS849, 18 h) it was 8 µg/mL (≈ 12.4 µM). Moreover, the “growth inhibitory activity (MICs) against clinical strains” value in experiment [2] is listed as “high potency in growth inhibitory activity”. Besides, in the experiment on E. faecalis ATCC29212, the “bactericidal properties (CFUs after 24 h pretreatment)” value is recorded as “potential bactericidal effects”.
